Measured values reported in article PMC3673541 (2011).

Experiments:
[1] = tested on: Oxytricha Nova quadruplex (DNA, G4) GGGGTTTTGGGG; assay: ITC; conditions: Na+ 100 mM; 10 mM cacodylate, 0.5 mM EDTA, pH 6.8
[2] = tested on: human telomeric DNA (22mer) (DNA, G4) AGGGTTAGGGTTAGGGTTAGGG; assay: ITC; conditions: Na+ 100 mM; 10 mM cacodylate, 0.5 mM EDTA, pH 6.8; one-site model

## NC[C@@H]1O[C@H](O[C@H]2[C@@H](O)[C@H](O[C@@H]3[C@@H](O)[C@H](N)C[C@H](N)[C@H]3O[C@H]3O[C@H](CN)[C@@H](O)[C@H](O)[C@H]3N)O[C@@H]2CO)[C@H](N)[C@@H](O)[C@@H]1O
[1]
  Ka: (1.8±0.3)×10^5 M^−1
[2]
  Ka: (2.5±0.2)×10^4 M^−1
